Measured values published in ChEMBL document CHEMBL1201862, “PubChem BioAssay data set” (2004).
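96-well plates; 48 h exposure; 5 concentrations. Endpoints by linear interpolation between flanking doses. Not reached: highest tested concentration assigned. GI50 marks 50% less growth.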 Calls of active or inactive are those of the source. Cut-off read from the data, not from the text of the source: active = GI50 up to about 1.1 µM and inactive = higher.

Assays:
Assay in all cases: growth of human tumour cells (NCI), 48 h
A498 = system: A498
EKVX = system: EKVX
Hs-578T = system: Hs-578T
IGROV-1 = system: IGROV-1
M14 = system: M14
MDA-N = system: MDA-N
NCI-H23 = system: NCI-H23
NCI-H522 = system: NCI-H522
OVCAR-3 = system: OVCAR-3
OVCAR-8 = system: OVCAR-8
PC-3 = system: PC-3
RPMI-8226 = system: RPMI-8226
SF-268 = system: SF-268
SF-295 = system: SF-295
SN12C = system: SN12C
SW-620 = system: SW-620
T47D = system: T47D
TK-10 = system: TK-10
U-251 = system: U-251
HCC 2998 = system: HCC 2998

Row | Structure (SMILES) | GI50 (A498) | GI50 (EKVX) | GI50 (Hs-578T) | GI50 (IGROV-1) | GI50 (M14) | GI50 (MDA-N) | GI50 (NCI-H23) | GI50 (NCI-H522) | GI50 (OVCAR-3) | GI50 (OVCAR-8) | GI50 (PC-3) | GI50 (RPMI-8226) | GI50 (SF-268) | GI50 (SF-295) | GI50 (SN12C) | GI50 (SW-620) | GI50 (T47D) | GI50 (TK-10) | GI50 (U-251) | GI50 (HCC 2998)
1 | O=C1c2ccccc2-c2c1c1ccccc1c(=O)n2Cc1ccco1 | > 100 µM (inactive) | > 100 µM (inactive) | 54.6 µM (inactive) | > 100 µM (inactive) | > 100 µM (inactive) | > 100 µM (inactive) | > 100 µM (inactive) | > 100 µM (inactive) | > 100 µM (inactive) | > 100 µM (inactive) | > 100 µM (inactive) | > 100 µM (inactive) | > 100 µM (inactive) | > 100 µM (inactive) | > 100 µM (inactive) | > 100 µM (inactive) | > 100 µM (inactive) | > 100 µM (inactive) | > 100 µM (inactive) | 
2 | CCOC(=O)C(NC(=O)c1cccc(Cl)c1)(Nc1ccc(S(=O)(=O)Nc2cc(C)nc(C)n2)cc1)C(F)(F)F (centres undefined) | > 100 µM (inactive) | > 100 µM (inactive) | > 100 µM (inactive) | > 100 µM (inactive) | > 100 µM (inactive) |  | > 100 µM (inactive) | > 100 µM (inactive) | > 100 µM (inactive) | > 100 µM (inactive) | > 100 µM (inactive) | > 100 µM (inactive) | > 100 µM (inactive) | > 100 µM (inactive) | > 100 µM (inactive) | > 100 µM (inactive) | > 100 µM (inactive) | > 100 µM (inactive) | > 100 µM (inactive) | > 100 µM (inactive)
3 | COC(=O)[C@@H](O)[C@]1(C(=O)OC)C2O[C@@H](OC)[C@@H]1CCCCCC[C@H]2O |  | > 100 µM (inactive) | > 100 µM (inactive) | > 100 µM (inactive) | > 100 µM (inactive) | > 100 µM (inactive) | > 100 µM (inactive) | > 100 µM (inactive) | > 100 µM (inactive) | > 100 µM (inactive) | > 100 µM (inactive) | > 100 µM (inactive) | > 100 µM (inactive) | > 100 µM (inactive) | > 100 µM (inactive) | > 100 µM (inactive) |  | > 100 µM (inactive) | > 100 µM (inactive) | > 100 µM (inactive)
4 | COc1cccc2c1[C@H]1CO[C@H]3C4C[C@H](C(=O)O)C([C@@H](C2)N13)N4C (some centres undefined) |  | 4.74 µM (inactive) | 0.0769 µM (active) | 4.51 µM (inactive) | 4.99 µM (inactive) | 0.17 µM (active) | 1.79 µM (inactive) | 0.294 µM (active) | 1.38 µM (inactive) |  |  |  | 1.79 µM (inactive) | 7.1 µM (inactive) | 1.99 µM (inactive) | 1.98 µM (inactive) | 0.242 µM (active) | 3.28 µM (inactive) | 1.41 µM (inactive) | 2.58 µM (inactive)
5 | Cc1ccc([N+](=O)[O-])cc1S(=O)(=O)Nc1ccc(C2=NN(C(=O)c3ccccc3)C(c3ccccc3)C2)cc1 (centres undefined) | 10.9 µM (inactive) | 16.3 µM (inactive) | 22.1 µM (inactive) | 17 µM (inactive) | 24.4 µM (inactive) | 21.2 µM (inactive) | 21.4 µM (inactive) | 11.5 µM (inactive) | 11.9 µM (inactive) | 18.9 µM (inactive) | 19.8 µM (inactive) | 25.5 µM (inactive) | 18.5 µM (inactive) | 16.9 µM (inactive) | 21.8 µM (inactive) | 40.7 µM (inactive) | 10.6 µM (inactive) | 18 µM (inactive) | 16.6 µM (inactive) | 
6 | O=c1cc(-c2ccc(O)cc2)n(C2CC2)c2ccccc12 |  |  | 5.41 µM (inactive) | 5.3 µM (inactive) | 6.89 µM (inactive) | 10.6 µM (inactive) | 8.73 µM (inactive) | 3.18 µM (inactive) | 4.23 µM (inactive) | 5.31 µM (inactive) | 9.44 µM (inactive) | 3.35 µM (inactive) | 7.29 µM (inactive) | 3.46 µM (inactive) | 6.01 µM (inactive) | 5.05 µM (inactive) | 3.96 µM (inactive) |  | 5.31 µM (inactive) | 
7 | CC(C)(C)C(=O)O[C@H]1C=C[C@@H](O)[C@@H]2[C@H]1[C@@H]1C=C[C@H]2C1 | 20.3 µM (inactive) | 6.01 µM (inactive) | > 100 µM (inactive) | 3.06 µM (inactive) | 13.7 µM (inactive) | 19.3 µM (inactive) | 12.1 µM (inactive) | 17.4 µM (inactive) | 19.7 µM (inactive) | 19 µM (inactive) |  | 17.1 µM (inactive) | 27.9 µM (inactive) | 44.5 µM (inactive) | 16.6 µM (inactive) | 42.7 µM (inactive) | 24.8 µM (inactive) | 26.4 µM (inactive) | 28.8 µM (inactive) | 14.9 µM (inactive)
8 | O=C(O)c1cccc(OCCO)c1 | > 100 µM (inactive) | > 100 µM (inactive) | > 100 µM (inactive) | > 100 µM (inactive) | > 100 µM (inactive) | > 100 µM (inactive) | > 100 µM (inactive) | > 100 µM (inactive) | > 100 µM (inactive) | > 100 µM (inactive) | > 100 µM (inactive) | > 100 µM (inactive) | > 100 µM (inactive) | > 100 µM (inactive) | > 100 µM (inactive) | > 100 µM (inactive) | > 100 µM (inactive) | > 100 µM (inactive) | > 100 µM (inactive) | 
9 | O=C1c2ccccc2C(=O)N1CCc1ncc[nH]1 |  | > 100 µM (inactive) | > 100 µM (inactive) | > 100 µM (inactive) | > 100 µM (inactive) | > 100 µM (inactive) | > 100 µM (inactive) | > 100 µM (inactive) | > 100 µM (inactive) | > 100 µM (inactive) | > 100 µM (inactive) | > 100 µM (inactive) | > 100 µM (inactive) | > 100 µM (inactive) | > 100 µM (inactive) | > 100 µM (inactive) | > 100 µM (inactive) | > 100 µM (inactive) |  | 
10 | COC(=O)Nc1nc2cc(Oc3ccc4nc(NC(=O)OC)[nH]c4c3)ccc2[nH]1 |  | 3.67 µM (inactive) | 0.975 µM (active) | 1.45 µM (inactive) | 0.993 µM (active) | 0.105 µM (active) | 1.81 µM (inactive) | 1.34 µM (inactive) | 0.149 µM (active) | 1.41 µM (inactive) | 0.419 µM (active) | 0.929 µM (active) | 1.36 µM (inactive) | 1.58 µM (inactive) | 1.78 µM (inactive) | 0.855 µM (active) | 2.59 µM (inactive) | 4.78 µM (inactive) | 0.681 µM (active) | 0.984 µM (active)
11 | c1ccc2[nH]c3nc4ccccc4c-3cc2c1 | 3.33 µM (inactive) | 0.395 µM (active) | 0.966 µM (active) | 0.286 µM (active) | 0.536 µM (active) | 0.641 µM (active) | 0.615 µM (active) | 0.0824 µM (active) |  | 0.363 µM (active) | 0.232 µM (active) | 0.327 µM (active) | 0.598 µM (active) | 0.5 µM (active) | 0.63 µM (active) | 0.156 µM (active) |  | 1.54 µM (inactive) | 0.454 µM (active) | 0.757 µM (active)
12 | C/C=C(/C)C(=O)O[C@@H]1CCN2CC[C@H](COC(=O)/C(=C/C)CO)C12 (some centres undefined) |  | > 100 µM (inactive) | 36.6 µM (inactive) | > 100 µM (inactive) | 19.6 µM (inactive) | 39.2 µM (inactive) | > 100 µM (inactive) | 49.4 µM (inactive) | > 100 µM (inactive) | > 100 µM (inactive) | > 100 µM (inactive) | 33.5 µM (inactive) | > 100 µM (inactive) | > 89.1 µM (inactive) | > 100 µM (inactive) | > 100 µM (inactive) | > 100 µM (inactive) | > 100 µM (inactive) | > 100 µM (inactive) | 20.7 µM (inactive)
13 | CC(=O)O[C@@H]1CC2[C@@H](CCC3Cc4nc5c(nc4C[C@@]32C)CC2CC[C@@H]3C(CC[C@@]4(C)C3CC[C@@H]4C(C)CCCC(C)C)[C@@]2(C)C5)C2C[C@@H]3OC4(CCC(C)CO4)C(C)[C@@H]3[C@]21C (some centres undefined) |  | > 100 µM (inactive) | 21.1 µM (inactive) | > 100 µM (inactive) | > 100 µM (inactive) | > 100 µM (inactive) | > 100 µM (inactive) | > 100 µM (inactive) | > 100 µM (inactive) | > 100 µM (inactive) | > 100 µM (inactive) | > 100 µM (inactive) | 39.3 µM (inactive) | 53.8 µM (inactive) | > 100 µM (inactive) | > 100 µM (inactive) | > 100 µM (inactive) | 33.1 µM (inactive) | 84.1 µM (inactive) | > 100 µM (inactive)
14 | C(/C=N/N=C1NCCCCN1)=N\N=C1NCCCCN1 |  | > 100 µM (inactive) | > 100 µM (inactive) | > 100 µM (inactive) | > 100 µM (inactive) | > 100 µM (inactive) | > 100 µM (inactive) | > 100 µM (inactive) | > 100 µM (inactive) | > 100 µM (inactive) | > 100 µM (inactive) |  | > 100 µM (inactive) | > 100 µM (inactive) | > 100 µM (inactive) | > 100 µM (inactive) | > 100 µM (inactive) | > 100 µM (inactive) | > 100 µM (inactive) | > 100 µM (inactive)
15 | CC(=O)NC(CS/N=N/c1[nH]cnc1C(N)=O)C(=O)O (centres undefined) |  | 54.5 µM (inactive) | 16.2 µM (inactive) | 5.81 µM (inactive) | 2.59 µM (inactive) | 5.05 µM (inactive) | 38.9 µM (inactive) | 14.9 µM (inactive) | 10 µM (inactive) | 2.06 µM (inactive) | 6.38 µM (inactive) | 1.46 µM (inactive) | 4.29 µM (inactive) | 4.16 µM (inactive) | 3.21 µM (inactive) | 6.15 µM (inactive) | > 24.1 µM (inactive) | 1.75 µM (inactive) | > 64.9 µM (inactive) | 4.41 µM (inactive)
